Measured values: PMC12163635, “Synthetic Retinoids for the Modulation of Genomic and Nongenomic Processes in Neurodegenerative Diseases” (ACS Omega, 2025)
Read-outs that look alike come from different tables or passages of the source.

Assays:
[1] = tested on: ERK1/2 phosphorylation in SH-SY5Y cells; test: ERK1/2 phosphorylation (nongenomic response), AlphaScreen SureFire; assay type: cell-based, human; parameters: nongenomic response Emax (±95% CI): unit not given here; conditions: for EC50: Homo sapiens, read-out: nongenomic response EC50 (±95% CI); for EC50 / nongenomic response Emax (±95% CI) / induction of ERK1/2 phosphorylation (nongenomic activity) / nongenomic response EC50 (±95% CI): SH-SY5Y cells, 1 h; for nongenomic E max compared with ATRA: nonoverlapping 95% CI
Procedure: After screening the retinoids for genomic responses, they were tested for their nongenomic ability to rapidly phosphorylate ERK1/2 in the SH-SY5Y cell line. ATRA is known as a potent activator of ERK1/2 − and was used as the standard for comparison. […] The efficacies of the remaining seven retinoids were similar to ATRA.
(§1) SH-SY5Y cell line as used in ERK phosphorylation and neurite outgrowth assays described below. The cells were grown in DMEM containing 10% FCS at 37 °C with 5% CO2. The medium was changed three times a week and the cells were passaged at 70% confluence using 0.05% trypsin-EDTA.
To quantify ERK1/2 phosphorylation, SH-SY5Y cells (100,000 cells/well) were plated onto 96-well plates and serum-starved for 24 h in DMEM. Cells were assayed in serum-free DMEM and stimulated for 60 min at 37 °C in a humidified atmosphere. Retinoids were tested at concentrations ranging from 10 to 4 to 10–11 M and at a final concentration of 0.1% DMSO. At the end of the assay, the medium was removed, and cells were lysed with lysis buffer supplied in the AlphaScreen SureFire ERK1/2 kit (PerkinElmer). The assay was performed in 384-well white Proxiplates according to the manufacturer’s instructions and using the beads supplied in the protein A general IgG detection kit (PerkinElmer). Briefly, 4 μL samples were incubated with 7 μL of the freshly prepared mixture containing donor and acceptor beads. Plates were incubated at room temperature and read with the Envision system (PerkinElmer Life Sciences) using AlphaScreen settings.
(§2) All data are presented as mean ± SEM of three independent experiments with biological triplicates. Statistical analyses were performed in Microsoft Office Excel 2019 or GraphPad Prism 7.0c version (Prism, GraphPad Software, San Diego, CA). Neurite outgrowth data were analyzed by one-way ANOVA with Newman-Keuls multiple comparison test as appropriate; P value <0.05 was considered statistically significant. *P < 0.05, **P < 0.01. Data for X-Gal and ERK1/2 phosphorylation were analyzed using sigmoidal dose–response analysis of log (agonist) versus response curve (stimulation).

SH-SY5Y cells = test: Neurite outgrowth; assay type: cell-based, human; conditions: for fold induction at 0.01 µM: Homo sapiens, SH-SY5Y, 120 h, read-out: fold increase in neurite outgrowth; for induction of neurite outgrowth compared with ATRA: 10 nM
Procedure: Following the characterization of retinoids for their genomic and nongenomic activities, the ability of retinoids to differentiate and induce neurite outgrowth in the neuroblastoma cell line, SH-SY5Y cells, was examined (Figure ). Neurite outgrowth can be induced in this cell line by ATRA at 10 μM.
as §1
SH-SY5Y cells were plated at 10,000 cells/well in 12-well plates containing 16 mm acid-treated/poly L-lysine-coated glass coverslips. After 24 h, retinoids were added to the medium and tested at two different concentrations, 10 μM and 10 nM, with a final DMSO concentration of 0.01 or 0.0001%, respectively. The plates were incubated for 5 days at 5% CO2/37 °C. All retinoid concentrations were tested in triplicate. Cells were fixed using 4% paraformaldehyde and stained for β-III tubulin (1:1000; Sigma). For each neurite outgrowth experiment, 3 coverslips (in 3 wells) were used. ImageJ software with the NeuronJ plugin was used to quantify neurite outgrowth on stained cells in each of the 10 randomly selected images of each coverslip taken using a Nikon Eclipse E400 fluorescence microscope. The average neurite length was calculated for each image by dividing total neurite length by the total number of neurites per image.
as §2

[2] = 10 nM compound, 5 days, in comparison to nontreated cells

Row | EC50 [1] [µM] | nongenomic response EC50 (±95% CI) [1] | Compound | nongenomic response Emax (±95% CI) [1] | nongenomic E max compared with ATRA [1] | fold induction at 0.01 µM (SH-SY5Y cells; [2]) | fold increase in neurite outgrowth (SH-SY5Y cells; [2]) | induction of neurite outgrowth compared with ATRA (SH-SY5Y cells; 5 days) | induction of ERK1/2 phosphorylation (nongenomic activity) [1] | fold induction at 0.01 µM (SH-SY5Y cells)
1 | 0.0908 | – | CC1(C)CCC(C)(C)c2cc(C#Cc3ccc(C(=O)O)cc3Cl)ccc21 [Compound 16, 3-Chloro-4-[2-(5,5,8,8-tetramethyl-5,6,7,8-tetrahydronaphthalen-2-yl)ethynyl]benzoic Acid] | 36.9 (±2.77) | E max values significantly lower than ATRA | 1.6 | – | – | – | –
2 | 0.459 | – | Cc1cc2c(cc1C#Cc1ccc(C(=O)O)cn1)C(C)(C)CCC2(C)C [Compound 26, 6-[2-(3,5,5,8,8-Pentamethyl-5,6,7,8-tetrahydronaphthalen-2-yl)ethynyl]pyridine-3-carboxylic Acid] | 56.4 (±6.36) | E max values significantly higher than ATRA | – | no response | unable to induce neurite outgrowth | – | –
3 | – | no response | COc1cc2c(cc1C#Cc1ccc(C(=O)O)cn1)C(C)(C)CCC2(C)C [Compound 27, 6-[2-(3-Methoxy-5,5,8,8-tetramethyl-5,6,7,8-tetrahydronaphthalen-2-yl)ethynyl]pyridine-3-carboxylic Acid] | no response | – | 1.7 | – | – | lacked nongenomic activity | –
4 | – | no response | Cc1sc(-c2ccc(C(=O)O)cc2F)nc1-c1cnc2c(n1)C(C)(C)CCC2(C)C [Compound 43, 3-Fluoro-4-[5-methyl-4-(5,5,8,8-tetramethyl-5,6,7,8-tetrahydroquinoxalin-2-yl)-1,3-thiazol-2-yl]benzoic Acid] | no response | – | 1.8 | – | – | lacked nongenomic activity | –
5 | 0.144 | – | Cc1cc2c(cc1C#Cc1cc(F)c(C(=O)O)c(F)c1)C(C)(C)CCC2(C)C [Compound 19, 2,6-Difluoro-4-[2-(3,5,5,8,8-pentamethyl-5,6,7,8-tetrahydronaphthalen-2-yl)ethynyl]benzoic Acid] | 77.6 (±2.92) | E max values significantly higher than ATRA | 1.6 | – | significantly induced neurite outgrowth compared to ATRA | – | –
6 | 0.00542 | – | Cc1cc2c(cc1C#Cc1ncc(C(=O)O)cn1)C(C)(C)CCC2(C)C [Compound 28, 2-[2-(3,5,5,8,8-Pentamethyl-5,6,7,8-tetrahydronaphthalen-2-yl)ethynyl]pyrimidine-5-carboxylic Acid] | 44.7 (±3.15) | – | – | – | induced neurite outgrowth but not significantly compared to ATRA | – | –
7 | 0.0584 | – | CC1(C)CCC(C)(C)c2nc(C#Cc3ccc(C(=O)O)cc3F)cnc21 [Compound 31, 3-Fluoro-4-[2-(5,5,8,8-tetramethyl-5,6,7,8-tetrahydroquinoxalin-2-yl)ethynyl]benzoic Acid] | 91.6 (±3.84) | E max values significantly higher than ATRA | – | – | induced neurite outgrowth but not significantly compared to ATRA | – | –
8 | 0.00244 | – | CC1(C)CCC(C)(C)c2cc(C#Cc3ccc(C(=O)O)c(F)c3)ccc21 [Compound 13, 2-Fluoro-4-[2-(5,5,8,8-tetramethyl-5,6,7,8-tetrahydronaphthalen-2-yl)ethynyl]benzoic Acid] | 43.4 (±1.81) | E max values significantly lower than ATRA | 1.9 | – | – | – | –
9 | 0.125 | – | CC1(C)CCC(C)(C)c2cc(C#Cc3cc(F)c(C(=O)O)c(F)c3)ccc21 [Compound 15, 2,6-Difluoro-4-[2-(5,5,8,8-tetramethyl-5,6,7,8-tetrahydronaphthalen-2-yl)ethynyl]benzoic Acid] | 76.2 (±5.47) | E max values significantly higher than ATRA | 1.7 | – | – | showed activity toward the nongenomic pathway | –
10 | 0.0874 | – | COc1cc2c(cc1C#Cc1ncc(C(=O)O)cn1)C(C)(C)CCC2(C)C [Compound 29, 2-[2-(3-Methoxy-5,5,8,8-tetramethyl-5,6,7,8-tetrahydronaphthalen-2-yl)ethynyl]pyrimidine-5-carboxylic Acid] | 37.5 (±2.12) | E max values significantly lower than ATRA | – | – | induced neurite outgrowth but not significantly compared to ATRA | – | –
11 | 0.0239 | – | CC1(C)CCC(C)(C)c2cc(C#Cc3ccc(C(=O)O)cn3)ccc21 [Compound 23, 6-[2-(5,5,8,8-Tetramethyl-5,6,7,8-tetrahydronaphthalen-2-yl)ethynyl]pyridine-3-carboxylic Acid] | 85.7 (±9.23) | – | 1.9 | – | significantly induced neurite outgrowth compared to ATRA | showed activity toward the nongenomic pathway | –
12 | 0.0207 | – | CC1(C)CCC(C)(C)c2cc(C#Cc3cnc(C(=O)O)cn3)ccc21 [Compound 25, 5-[2-(5,5,8,8-Tetramethyl-5,6,7,8-tetrahydronaphthalen-2-yl)ethynyl]pyrazine-2-carboxylic Acid] | 27.9 (±1.66) | E max values significantly lower than ATRA | – | – | induced neurite outgrowth but not significantly compared to ATRA | – | –
13 | 0.00573 | – | Cc1cc2c(cc1C#Cc1ccc(C(=O)O)c(F)c1)C(C)(C)CCC2(C)C [Compound 17, 2-Fluoro-4-[2-(3,5,5,8,8-pentamethyl-5,6,7,8-tetrahydronaphthalen-2-yl)ethynyl]benzoic Acid] | 44.1 (±2.69) | – | – | – | induced neurite outgrowth but not significantly compared to ATRA | – | –
14 | 0.0274 | – | CC1(C)CCC(C)(C)c2cc(C#Cc3ccc(C(=O)O)cc3F)ccc21 [Compound 14, 3-Fluoro-4-[2-(5,5,8,8-tetramethyl-5,6,7,8-tetrahydronaphthalen-2-yl)ethynyl]benzoic Acid] | 50.7 (±2.51) | – | 2.1 | – | – | – | –
15 | 0.00337 | – | COc1cc2c(cc1C#Cc1cc(F)c(C(=O)O)c(F)c1)C(C)(C)CCC2(C)C [Compound 22, 2,6-Difluoro-4-[2-(3-methoxy-5,5,8,8-tetramethyl-5,6,7,8-tetrahydronaphthalen-2-yl)ethynyl]benzoic Acid] | 71.2 (±3.9) | – | – | – | induced neurite outgrowth but not significantly compared to ATRA | – | –
16 | 0.0131 | – | Cc1cc2c(cc1C#Cc1ccc(C(=O)O)cc1F)C(C)(C)CCC2(C)C [Compound 18, 3-Fluoro-4-[2-(3,5,5,8,8-pentamethyl-5,6,7,8-tetrahydronaphthalen-2-yl)ethynyl]benzoic Acid] | 40.1 (±1.86) | E max values significantly lower than ATRA | – | – | induced neurite outgrowth but not significantly compared to ATRA | – | –

Row | Compound | EC50 [1] [µM] | nongenomic response EC50 (±95% CI) [1] | nongenomic response Emax (±95% CI) [1] | nongenomic E max compared with ATRA [1] | fold induction at 0.01 µM (SH-SY5Y cells; [2]) | fold increase in neurite outgrowth (SH-SY5Y cells; [2]) | induction of neurite outgrowth compared with ATRA (SH-SY5Y cells; 5 days) | induction of ERK1/2 phosphorylation (nongenomic activity) [1] | fold induction at 0.01 µM (SH-SY5Y cells)
17 | Cc1sc(-c2ccc(C(=O)O)cc2)nc1-c1ccc2c(c1)C(C)(C)CCC2(C)C [GZ25, reference compound] | 0.00357 | – | 76.6 (±2.61) | E max values significantly higher than ATRA | – | – | induced significant neurite outgrowth compared to ATRA | – | 1.8
